# pIC50: −log10 of the molar value.
# Legend:
# Type in all cases: cell-based
# human TLR9 = biological target: T1, human TLR9 (Homo sapiens, UniProt Q9NR96); experiment: TLR9 inhibition reporter assay (HEK-Blue SEAP); settings: HEK-Blue cells overexpressing human TLR9, stimulated with ODN2006 5 nM, 22 hour incubation
# T1 construct: host or cells: HEK-Blue cells
# T1 sequence (Q9NR96 26-1032): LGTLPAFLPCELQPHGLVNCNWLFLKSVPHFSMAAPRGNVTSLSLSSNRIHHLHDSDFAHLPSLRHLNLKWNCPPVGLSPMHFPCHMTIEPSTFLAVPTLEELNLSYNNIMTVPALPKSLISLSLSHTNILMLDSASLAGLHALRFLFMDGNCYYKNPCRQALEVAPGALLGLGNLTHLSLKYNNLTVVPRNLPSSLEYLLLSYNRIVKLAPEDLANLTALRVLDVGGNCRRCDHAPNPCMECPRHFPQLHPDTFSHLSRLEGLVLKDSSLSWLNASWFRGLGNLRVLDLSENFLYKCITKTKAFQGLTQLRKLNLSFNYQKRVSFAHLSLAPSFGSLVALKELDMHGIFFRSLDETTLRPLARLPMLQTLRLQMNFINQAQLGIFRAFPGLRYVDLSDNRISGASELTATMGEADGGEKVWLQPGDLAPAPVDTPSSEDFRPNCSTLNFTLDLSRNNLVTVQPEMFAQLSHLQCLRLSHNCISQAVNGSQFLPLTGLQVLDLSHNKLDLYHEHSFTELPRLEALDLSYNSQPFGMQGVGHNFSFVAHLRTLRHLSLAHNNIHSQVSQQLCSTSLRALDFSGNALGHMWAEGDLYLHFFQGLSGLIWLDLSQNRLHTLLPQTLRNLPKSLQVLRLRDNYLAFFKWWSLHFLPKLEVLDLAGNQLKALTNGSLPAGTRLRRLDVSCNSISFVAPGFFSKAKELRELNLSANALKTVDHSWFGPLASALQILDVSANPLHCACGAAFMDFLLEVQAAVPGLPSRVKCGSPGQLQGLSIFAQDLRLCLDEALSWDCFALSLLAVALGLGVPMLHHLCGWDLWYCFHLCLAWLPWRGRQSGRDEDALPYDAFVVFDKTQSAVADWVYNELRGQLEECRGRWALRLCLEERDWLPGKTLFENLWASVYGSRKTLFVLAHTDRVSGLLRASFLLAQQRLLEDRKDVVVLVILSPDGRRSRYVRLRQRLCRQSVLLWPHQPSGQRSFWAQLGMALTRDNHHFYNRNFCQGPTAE
# Procedure, shortened: (§1)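 Stimulation followed a 30 min room-temperature compound exposure (final 0.05 nM-50 μM): TLR7 cells with 7.5 μM gardiquimod, TLR8 with 15.9 μM R848, TLR9 with 5 nM ODN2006. After 22 h at 37 °C, secreted alkaline phosphatase was detected colorimetrically and inhibition calculated against DMSO and known-inhibitor controls.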
# human TLR8 = biological target: T2, human TLR8 (Homo sapiens, UniProt Q9NR97); experiment: TLR8 inhibition reporter assay (HEK-Blue SEAP); settings: HEK-Blue cells overexpressing human TLR8, stimulated with R848 15.9 μM, 22 hour incubation
# T2 construct: host or cells: HEK-Blue cells
# T2 sequence (Q9NR97 27-1041): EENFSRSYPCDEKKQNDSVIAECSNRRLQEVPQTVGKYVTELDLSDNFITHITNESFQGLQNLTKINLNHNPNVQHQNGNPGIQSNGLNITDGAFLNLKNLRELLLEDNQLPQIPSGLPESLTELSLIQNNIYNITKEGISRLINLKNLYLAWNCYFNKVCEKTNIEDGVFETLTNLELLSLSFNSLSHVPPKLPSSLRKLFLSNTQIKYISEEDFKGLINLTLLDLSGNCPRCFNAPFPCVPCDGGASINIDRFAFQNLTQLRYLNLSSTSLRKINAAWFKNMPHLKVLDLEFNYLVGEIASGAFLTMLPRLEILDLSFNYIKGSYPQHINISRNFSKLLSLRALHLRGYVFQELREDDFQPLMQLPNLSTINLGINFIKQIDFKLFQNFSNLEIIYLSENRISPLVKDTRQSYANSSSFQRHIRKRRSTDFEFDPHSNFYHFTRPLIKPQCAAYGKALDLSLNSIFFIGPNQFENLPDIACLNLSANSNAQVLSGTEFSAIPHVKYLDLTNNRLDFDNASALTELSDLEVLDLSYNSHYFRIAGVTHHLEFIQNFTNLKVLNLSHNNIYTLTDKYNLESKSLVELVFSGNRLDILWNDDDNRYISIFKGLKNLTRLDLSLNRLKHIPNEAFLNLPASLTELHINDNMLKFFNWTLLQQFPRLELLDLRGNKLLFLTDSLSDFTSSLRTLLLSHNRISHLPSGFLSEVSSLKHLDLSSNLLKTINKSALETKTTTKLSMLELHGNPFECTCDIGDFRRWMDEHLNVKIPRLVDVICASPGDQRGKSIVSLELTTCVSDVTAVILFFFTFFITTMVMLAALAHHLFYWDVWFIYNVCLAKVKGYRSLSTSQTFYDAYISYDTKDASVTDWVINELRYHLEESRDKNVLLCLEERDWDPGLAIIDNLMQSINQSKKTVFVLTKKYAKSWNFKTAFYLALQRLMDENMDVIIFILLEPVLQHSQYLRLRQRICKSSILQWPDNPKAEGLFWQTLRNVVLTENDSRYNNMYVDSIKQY
# Procedure, shortened: as §1
# human TLR7 = biological target: T3, human TLR7 (Homo sapiens, UniProt Q9NYK1); experiment: TLR7 inhibition reporter assay (HEK-Blue SEAP); settings: HEK-Blue cells overexpressing human TLR7, stimulated with gardiquimod 7.5 μM, 22 hour incubation
# T3 construct: host or cells: HEK-Blue cells
# T3 sequence (Q9NYK1 27-1049): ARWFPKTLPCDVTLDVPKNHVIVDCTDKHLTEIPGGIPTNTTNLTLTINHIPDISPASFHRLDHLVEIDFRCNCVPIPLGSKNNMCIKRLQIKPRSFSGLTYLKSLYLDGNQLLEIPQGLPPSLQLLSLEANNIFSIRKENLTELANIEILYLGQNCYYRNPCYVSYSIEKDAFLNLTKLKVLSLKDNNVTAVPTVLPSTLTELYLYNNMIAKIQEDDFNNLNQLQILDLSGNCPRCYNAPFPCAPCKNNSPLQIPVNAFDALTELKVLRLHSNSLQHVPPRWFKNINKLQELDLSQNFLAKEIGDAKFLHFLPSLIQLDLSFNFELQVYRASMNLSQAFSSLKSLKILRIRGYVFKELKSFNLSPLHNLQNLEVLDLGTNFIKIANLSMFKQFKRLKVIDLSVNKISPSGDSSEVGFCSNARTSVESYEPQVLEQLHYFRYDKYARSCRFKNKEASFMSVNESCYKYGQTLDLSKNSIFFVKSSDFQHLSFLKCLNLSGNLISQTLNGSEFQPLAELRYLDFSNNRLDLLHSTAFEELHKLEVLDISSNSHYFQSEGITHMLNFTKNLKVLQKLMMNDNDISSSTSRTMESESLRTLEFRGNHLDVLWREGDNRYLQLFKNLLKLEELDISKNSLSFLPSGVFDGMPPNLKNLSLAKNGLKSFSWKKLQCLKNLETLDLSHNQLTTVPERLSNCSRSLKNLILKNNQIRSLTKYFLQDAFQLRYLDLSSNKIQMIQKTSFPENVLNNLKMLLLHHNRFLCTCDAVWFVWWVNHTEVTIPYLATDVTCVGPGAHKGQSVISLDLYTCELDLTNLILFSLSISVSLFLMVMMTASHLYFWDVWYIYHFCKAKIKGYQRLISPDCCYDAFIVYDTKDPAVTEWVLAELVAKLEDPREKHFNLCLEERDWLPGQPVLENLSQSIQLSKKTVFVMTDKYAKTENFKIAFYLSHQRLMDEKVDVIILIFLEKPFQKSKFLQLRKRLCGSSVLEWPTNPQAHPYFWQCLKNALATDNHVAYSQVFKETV
# Procedure, shortened: as §1
SMILES,pIC50 (human TLR9),pIC50 (human TLR8),pIC50 (human TLR7)
"Cc1cc(-c2[nH]c3ccc(OCC4CCN(C(=O)CN(C)C)CC4)cc3c2C(C)C)cn(C)c1=O [Example 97, 5-(5-((1-(dimethylglycyl)piperidin-4-yl)methoxy)-3-isopropyl-1H-indol-2-yl)-1,3-dimethylpyridin-2(1H)-one]",4.78,8.25,8.46
"Cc1cc(-c2[nH]c3ccc(OC4CCNCC4)cc3c2C(C)C)cn2ncnc12 [Example 10, 6-(3-isopropyl-5-(piperidin-4-yloxy)-1H-indol-2-yl)-8-methyl-[1,2,4]triazolo[1,5-a] pyridine]",6.19,8.80,9.22
"Cc1cc(-c2[nH]c3ccc(OCC4CN(C)C4)cc3c2C(C)C)cn2ncnc12 [Example 59, 6-(3-isopropyl-5-((1-methylazetidin-3-yl)methoxy)-1H-indol-2-yl)-8-methyl-[1,2,4]triazolo[1,5-a]pyridine]",5.52,8.17,9.30
"CCCN1CCC(Oc2ccc3[nH]c(-c4cc(OC)c5ncnn5c4)c(C(C)C)c3c2)CC1 [Example 67, 6-(3-isopropyl-5-((1-propylpiperidin-4-yl)oxy)-1H-indol-2-yl)-8-methoxy-[1,2,4]triazolo[1,5-a]pyridine]",5.98,9.70,9.70
"Cc1cc(-c2[nH]c3ccc(O[C@H]4CCCN(C5CCOCC5)C4)cc3c2C(C)C)cn(C)c1=O [Example 40, (S)-5-(3-isopropyl-5-((1-(tetrahydro-2H-pyran-4-yl)piperidin-3-yl)oxy)-1H-indol-2-yl)-1,3-dimethylpyridin-2(1H)-one]",5.28,7.97,7.80
"Cc1cc(-c2[nH]c3ccc(OCC4CN(C5COC5)C4)cc3c2C(C)C)cn2ncnc12 [Example 60, 6-(3-isopropyl-5-((1-(oxetan-3-yl)azetidin-3-yl)methoxy)-1H-indol-2-yl)-8-methyl-[1,2,4]triazolo[1,5-a]pyridine]",5.58,8.33,8.92
"Cc1c(-c2[nH]c3ccc(OCC4CCN(C(C)C)CC4)cc3c2C(C)C)cn2cnnc2c1C [Example 55, 6-(3-isopropyl-5-((1-isopropylpiperidin-4-yl)methoxy)-1H-indol-2-yl)-7,8-dimethyl-[1,2,4]triazolo[4,3-a]pyridine]",5.79,8.37,8.59
"Cc1cc(-c2[nH]c3ccc(OCC4CCN(C5COC5)CC4)cc3c2C(C)C)cn2ncnc12 [Example 43, 6-(3-isopropyl-5-((1-(oxetan-3-yl)piperidin-4-yl)methoxy)-1H-indol-2-yl)-8-methyl-[1,2,4]triazolo[1,5-a]pyridine]",< 4.30,8.96,9.22
"Cc1cc(-c2[nH]c3ccc(OC4CCN(C5CCOCC5)CC4)cc3c2C(C)C)cn2ncnc12 [Example 68, 6-(3-isopropyl-5-((1-(tetrahydro-2H-pyran-4-yl)piperidin-4-yl)oxy)-1H-indol-2-yl)-8-methyl-[1,2,4]triazolo[1,5-a]pyridine]",5.64,8.77,8.23
"Cc1cc(-c2[nH]c3ccc(OCC4CCN(C)CC4)cc3c2C(C)C)cc(C)n1 [Example 33, 2-(2,6-dimethylpyridin-4-yl)-3-isopropyl-5-((1-methylpiperidin-4-yl)methoxy)-1H-indole]",6.30,8.59,8.55
"COc1ccc(-c2[nH]c3ccc(OCC(=O)NC4CCNCC4)cc3c2C(C)C)cc1OC [Example 136, 2-((2-(3,4-dimethoxyphenyl)-3-isopropyl-1H-indol-5-yl)oxy)-N-(piperidin-4-yl)acetamide]",6.11,7.43,6.90
"Cc1c(-c2[nH]c3ccc(OCC4CCN(C(=O)CN(C)C)CC4)cc3c2C(C)C)cn2cnnc2c1C [Example 106, 1-(4-(((2-(7,8-dimethyl-[1,2,4]triazolo[4,3-a]pyridin-6-yl)-3-isopropyl-1H-indol-5-yl)oxy)methyl)piperidin-1-yl)-2-(dimethylamino)ethan-1-one]",5.68,7.24,8.34
"Cc1cc(-c2[nH]c3ccc(OC4CCN(CC(=O)N(C)C)CC4)cc3c2C(C)C)cc(C)n1 [Example 79, 2-(4-((2-(2,6-dimethylpyridin-4-yl)-3-isopropyl-1H-indol-5-yl)oxy)piperidin-1-yl)-N,N-dimethylacetamide]",6.35,8.49,8.10
"COCCN1CCC(COc2ccc3[nH]c(-c4cc(C)c(=O)n(C)c4)c(C(C)C)c3c2)CC1 [Example 74, 5-(3-isopropyl-5-((1-(2-methoxyethyl)piperidin-4-yl)methoxy)-1H-indol-2-yl)-1,3-dimethylpyridin-2(1H)-one]",4.53,8.41,7.68

# From patent US12030878B2 (BRISTOL-MYERS SQUIBB COMPANY, priority 2017, dated 2024)
